Test results: patent US20210040118A1, “IMMUNOMODULATORS, COMPOSITIONS AND METHODS THEREOF” (BETTA PHARMACEUTICALS CO., LTD, priority 2018, published 2021)
pIC50: −log10 of the molar value.

What follows are compounds tested against T1, PD-1/PD-L1 (Homo sapiens, UniProt Q9NZQ7) (assay: PD-1/PD-L1 homogenous time-resolved fluorescence (HTRF) binding assay). Settings: recombinant human PD-L1 (19-238) His-tag / human PD-1 (25-167) Fc tag, class symbols.
T1 construct: Recombinant human PD-L1 protein (19-238) with a His-tag at the C-terminus; purchased AcroBiosystems PD1-H5229 (PD-L1); PD1-H5257 (PD-1)
Method: Resolved Fluorescence (HTRF) Binding Assay
The assays were conducted in a standard black 384-well polystyrene plate with a final volume of 20 μL. Inhibitors were first serially diluted in DMSO and then added to the plate wells before the addition of other reaction components. The final concentration of DMSO in the assay was 1%. The assays were carried out at 25° C. in the PBS buffer (pH 7.4) with 0.05% Tween-20 and 0.1% BSA. Recombinant human PD-L1 protein (19-238) with a His-tag at the C-terminus was purchased from AcroBiosy stems (PD1-H5229). Recombinant human PD-1 protein (25-167) with Fc tag at the C-terminus was also purchased from AcroBiosystems (PD1-H5257). PD-L1 and PD-1 proteins were diluted in the assay buffer and 10 μL was added to the plate well. Plates were centrifuged and proteins were preincubated with inhibitors for 40 min. The incubation was followed by the addition of […] of HTRF detection buffer supplemented with Europium cryptate-labeled anti-human IgG (PerkinElmer-AD0212) specific for Fc and anti-His antibody conjugated to SureLight®-Allophycocyanin (APC, PerkinElmer-AD0059H). After centrifugation, the plate was incubated at 25° C. for 60 min. Before reading on a PHERAstar FS plate reader (665 nm/620 nm ratio). Final concentrations in the assay were […] PD1, 10 nM PD-L1, 1 nM europium anti-human IgG and 20 nM anti-His-Allophycocyanin. IC50 determination was performed by fitting the curve of percent control activity versus the log of the inhibitor concentration using the GraphPad Prism 5.0 software.
Data obtained for the Example compounds using the PD-1/PD-L1 homogenous time-resolved fluorescence (HTRF) binding assay described in Example A is provided in Table 4.

T1 sequence (Q9NZQ7 19-238): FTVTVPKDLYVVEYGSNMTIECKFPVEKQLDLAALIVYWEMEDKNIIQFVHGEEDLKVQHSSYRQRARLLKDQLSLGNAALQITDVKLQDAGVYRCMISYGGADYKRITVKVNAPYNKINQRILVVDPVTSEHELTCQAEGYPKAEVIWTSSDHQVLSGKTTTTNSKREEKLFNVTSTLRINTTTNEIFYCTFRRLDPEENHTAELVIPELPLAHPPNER

pIC50	Compound
> 7.60	Cc1c(NC(=O)c2ncc(CN3CCCC3)s2)cccc1-c1cccc(NC(=O)c2ncc(CN3CCCC3)s2)c1C [Example 29, N,N′-(2,2′-dimethyl-[1,1′-biphenyl]-3,3′-diyl)bis(5-(pyrrolidin-1-ylmethyl)thiazole-2-carboxamide)]
> 7.60	Cc1c(Nc2nccc3cc(CNCC(=O)O)cnc23)cccc1-c1cccc(Nc2nccc3cc(CNCC(=O)O)cnc23)c1C [Example 138, 2,2′-(((((2,2′-dimethyl-[1,1′-biphenyl]-3,3′-diyl)bis(azanediyl))bis(1,7-naphthyridine-8,3-diyl))bis(methylene))bis(azanediyl))diacetic acid]
> 7.60	CN(C)C(=O)CN1CCc2nc(C(=O)N3CCc4c(-c5cccc6c5CCN6C(=O)c5nc6c(s5)CN(CC(=O)N(C)C)CC6)cccc43)sc2C1 [Example 106, 2,2′-(([4,4′-biindoline]-1,1′-dicarbonyl)bis(6,7-dihydrothiazolo[5,4-c]pyridine-2,5(4H)-diyl))bis(N,N-dimethylacetamide)]
> 7.60	Cc1c(NC(=O)c2cn3c(n2)CNCC3)cccc1-c1cccc(NC(=O)c2cc3c(s2)CCNC3)c1C [Example 35, N-(2,2′-dimethyl-3′-(5,6,7,8-tetrahydroimidazo[1,2-a]pyrazine-2-carboxamido)-[1,1′-biphenyl]-3-yl)-4,5,6,7-tetrahydrothieno[3,2-c]pyridine-2-carboxamide]
> 7.60	CS(=O)(=O)NCCN1CCc2nc(C(=O)N3CCc4c(-c5cccc6c5CCN6C(=O)c5nc6c(s5)CN(CCNS(C)(=O)=O)CC6)cccc43)sc2C1 [Example 117, N,N′-((([4,4′-biindoline]-1,1′-dicarbonyl)bis(6,7-dihydrothiazolo[5,4-c]pyridine-2,5(4H)-diyl))bis(ethane-2,1-diyl))dimethanesulfonamide]
> 7.60	COC(=O)NCCNCc1cnc2c(Nc3cccc(-c4cccc(Nc5nccc6cc(CNCCNC(=O)OC)cnc56)c4C)c3C)nccc2c1 [Example 158, dimethyl ((((((2,2′-dimethyl-[1,1′-biphenyl]-3,3′-diyl)bis(azanediyl))bis(1,7-naphthyridine-8,3-diyl))bis(methylene))bis(azanediyl))bis(ethane-2,1-diyl))dicarbamate]
> 7.60	CNC(C)c1cnc(C(=O)Nc2cccc(-c3cccc(NC(=O)c4cnc(C(C)NC)cn4)c3C)c2C)cn1 (centres unmarked) [Example 180, N,N′-(2,2′-dimethyl-[1,1′-biphenyl]-3,3′-diyl)bis(5-(1-(methylamino)ethyl)pyrazine-2-carboxamide)]
> 7.60	Cc1c(NC(=O)c2ccc3c(n2)CCN(CCO)C3)cccc1-c1cccc(NC(=O)c2ccc3c(n2)CCN(CCO)C3)c1C [Example 174, N,N′-(2,2′-dimethyl-[1,1′-biphenyl]-3,3′-diyl)bis(6-(2-hydroxyethyl)-5,6,7,8-tetrahydro-1,6-naphthyridine-2-carboxamide)]
> 7.60	COC(=O)N[C@H](C(=O)N1CCc2nc(C(=O)N3CCc4c(-c5cccc6c5CCN6C(=O)c5ccc6c(n5)CCN(C(=O)[C@@H](NC(=O)OC)C(C)C)C6)cccc43)ccc2C1)C(C)C [Example 168, dimethyl ((2S,2'S)-(([4,4′-biindoline]-1,1′-dicarbonyl)bis(7,8-dihydro-1,6-naphthyridine-2,6(5H)-diyl))bis(3-methyl-1-oxobutane-1,2-diyl))dicarbamate]
7.00 to 7.60	O=C(c1nc2c(s1)CN(CC(F)(F)F)CC2)N1CCc2c(-c3cccc4c3CCN4C(=O)c3nc4c(s3)CN(CC(F)(F)F)CC4)cccc21 [Example 84, [4,4′-biindoline]-1,1′-diylbis((5-(2,2,2-trifluoroethyl)-4,5,6,7-tetrahydrothiazolo[5,4-c]pyridin-2-yl)methanone)]
> 7.60	O=C(Nc1cccc(-c2cccc(NC(=O)c3ncc(CN4C[C@H](O)C[C@H]4C(=O)O)s3)c2Cl)c1Cl)c1ncc(CN2C[C@H](O)C[C@H]2C(=O)O)s1 [Example 67, (2S,2'S,4R,4′R)-1,1′-(((((2,2′-dichloro-[1,1′-biphenyl]-3,3′-diyl)bis(azanediyl))bis(carbonyl))bis(thiazole-2,5-diyl))bis(methylene))bis(4-hydroxypyrrolidine-2-carboxylic acid)]
> 7.60	COC(=O)NCCNCc1cnc2c(Nc3cccc(-c4cccc5c4CCN5C(=O)C4=NC5CCN(CC(=O)O)CC5S4)c3C)nccc2c1 (centres unmarked) [Example 159, 2-(2-(4-(3-((3-(((2-((methoxycarbonyl)amino)ethyl)amino)methyl)-1,7-naphthyridin-8-yl)amino)-2-methylphenyl)indoline-1-carbonyl)-3a,6,7,7a-tetrahydrothiazolo[5,4-c]pyridin-5(4H)-yl)acetic acid]
> 7.60	Cc1c(Nc2nccc3cc(CNC(C(=O)O)C(C)C)cnc23)cccc1-c1cccc(Nc2nccc3cc(CNC(C(=O)O)C(C)C)cnc23)c1C (centres unmarked) [Example 142, 2,2′-(((((2,2′-dimethyl-[1,1′-biphenyl]-3,3′-diyl)bis(azanediyl))bis(1,7-naphthyridine-8,3-diyl))bis(methylene))bis(azanediyl))bis(3-methylbutanoic acid)]
> 7.60	Cc1nc(C(=O)N2CCc3c(-c4cccc5c4CCN5C(=O)c4nc(C)c(CN[C@H](C(=O)O)C5CCOCC5)s4)cccc32)sc1CN[C@H](C(=O)O)C1CCOCC1 [Example 57, (2S,2'S)-2,2′-(2,2′-(4,4′-biindoline-1,1′-diylbis(oxomethylene))bis(4-methylthiazole-5,2-diyl))bis(methylene)bis(azanediyl)bis(2-(tetrahydro-2H-pyran-4-yl)acetic acid)]
> 7.60	O=C(c1nc2c(s1)CN(CCF)CC2)N1CCc2c(-c3cccc4c3CCN4C(=O)c3nc4c(s3)CN(CCF)CC4)cccc21 [Example 87, [4,4′-biindoline]-1,1′-diylbis((5-(2-fluoroethyl)-4,5,6,7-tetrahydrothiazolo[5,4-c]pyridin-2-yl)methanone)]
> 7.60	Cc1c(NC(=O)c2cnc(C(C)NCCO)cn2)cccc1-c1cccc(NC(=O)c2cnc(C(C)NCCO)cn2)c1C (centres unmarked) [Example 181, N,N′-(2,2′-dimethyl-[1,1′-biphenyl]-3,3′-diyl)bis(5-(1-((2-hydroxyethyl)amino)ethyl)pyrazine-2-carboxamide)]
7.00 to 7.60	CS(=O)(=O)NC(=O)C1(N2CCc3nc(C(=O)N4CCc5c(-c6cccc7c6CCN7C(=O)c6nc7c(s6)CN(C6(C(=O)NS(C)(=O)=O)CC6)CC7)cccc54)sc3C2)CC1 [Example 129, 1,1′-(([4,4′-biindoline]-1,1′-dicarbonyl)bis(6,7-dihydrothiazolo[5,4-c]pyridine-2,5(4H)-diyl))bis(N-(methylsulfonyl)cyclopropane-1-carboxamide)]
> 7.60	Cc1c(NC(=O)c2cc3c(s2)CCNC3)cccc1-c1cccc(NC(=O)c2nc3c(s2)CNCC3)c1C [Example 15, N-(2,2′-dimethyl-3′-(4,5,6,7-tetrahydrothieno[3,2-c]pyridine-2-carboxamido)-[1,1′-biphenyl]-3-yl)-4,5,6,7-tetrahydrothiazolo[5,4-c]pyridine-2-carboxamide]
7.00 to 7.60	Cc1c(NC(=O)c2nc3c(o2)CNCC3)cccc1-c1cccc(NC(=O)c2nc3c(o2)CNCC3)c1C [Example 13, N,N′-(2,2′-dimethyl-[1,1′-biphenyl]-3,3′-diyl)bis(4,5,6,7-tetrahydrooxazolo[5,4-c]pyridine-2-carboxamide)]
> 7.60	Cc1c(NC(=O)c2nc3c(n2C)CNCC3)cccc1-c1cccc(NC(=O)c2nc3c(n2C)CNCC3)c1C [Example 64, N,N′-(2,2′-dimethylbiphenyl-3,3′-diyl)bis(3-methyl-4,5,6,7-tetrahydro-3H-imidazo[4,5-c]pyridine-2-carboxamide)]
6.70 to 7.00	Cc1c(NC(=O)c2nc3c(s2)CN(Cc2ccc(Cl)c(Cl)c2)CC3)cccc1-c1cccc(NC(=O)c2nc3c(s2)CN(Cc2ccc(Cl)c(Cl)c2)CC3)c1C [Example 75, N,N′-(2,2′-dimethyl-[1,1′-biphenyl]-3,3′-diyl)bis(5-(3,4-dichlorobenzyl)-4,5,6,7-tetrahydrothiazolo[5,4-c]pyridine-2-carboxamide)]
> 7.60	O=C(Nc1cccc(-c2cccc(Nc3nccc4cc(CNCCO)cnc34)c2Cl)c1Cl)c1ncc(CNCCO)s1 [Example 98, N-(2,2′-dichloro-3′-((3-(((2-hydroxyethyl)amino)methyl)-1,7-naphthyridin-8-yl)amino)-[1,1′-biphenyl]-3-yl)-5-(((2-hydroxyethyl)amino)methyl)thiazole-2-carboxamide]

Compound	pIC50
2-((3′-(6,6-dimethyl-5,6,7,8-tetrahydro-614-1,6-naphthyridin-7-ylium-2-carboxamido)-2,2′-dimethyl-[1,1′-biphenyl]-3-yl)carbamoyl)-6,6-dimethyl-5,6,7,8-tetrahydro-1,6-naphthyridin-6-ium chloride [Example 171]	> 7.60
